Laboratory results taken from ChEMBL document CHEMBL1141817, “A novel extracellular diterpenoid with antibacterial activity from the cyanobacterium Nostoc commune” (1999).
≈ marks a conversion by molar mass, not a printed value.

Tests used:
Type in all cases: functional
Bacillus cereus = test: Antibacterial activity against Bacillus cereus ATCC 10702
[1] = system: Staphylococcus epidermidis; test: Antibacterial activity against Staphylococcus epidermidis ATCC 12228
Escherichia coli = test: Antibacterial activity against Escherichia coli ATCC 25922

Structure (SMILES) | MIC (Bacillus cereus) | MIC [1] | MIC (Escherichia coli)
O=C(N[C@H](CO)[C@H](O)c1ccc([N+](=O)[O-])cc1)C(Cl)Cl [CHLORAMPHENICOL] | 8 µg/mL (≈ 24.8 µM) | 4 µg/mL (≈ 12.4 µM) | 64 µg/mL (≈ 198 µM)
C[C@@H]1CC=C2[C@@H](CC[C@H]3C(C)(C)[C@H](O)CC[C@@]23C)[C@]1(C)Cc1cc(C(=O)O)ccc1O [NOSCOMIN] | 32 µg/mL (≈ 75 µM) | 8 µg/mL (≈ 18.8 µM) | 128 µg/mL (≈ 300 µM)
